In US8415469B2, “Compounds and methods for kinase modulation, and indications therefor” (Plexxikon Inc., priority 2005, dated 2013):

Legend:
Format in all cases: biochemical
Akt3 = Akt3 (Homo sapiens, UniProt Q9Y243); experiment: AlphaScreen kinase assay, Akt3; settings: read-out: IC50, activity toward kinase Akt3
Method in brief: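 Here, phosphorylation of a biotin-tagged peptide was sensed by proximity of streptavidin donor and antibody-bearing acceptor beads. Test compounds covered 8 concentrations by 1:3 serial dilution of 20 mM DMSO stocks.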

PKC theta = target: T1, PKC theta (Homo sapiens, UniProt Q04759); experiment: Z'-Lyte FRET kinase assay (Invitrogen), PKC theta; settings: read-out: IC50, activity toward kinase PKC theta
T1 construct: purchased Invitrogen (Carlsbad, Calif.), screening service
Text: The effect of potential modulators of kinase activity can be measured in a variety of different assays known in the art. For example, direct radiometric, indirect FRET or AlphaScreen assays may be used to assess the level of phosphorylation of a substrate in the presence of test compounds in order to determine the inhibitory affect of the compound on the kinase. Invitrogen (Carlsbad, Calif.) uses a FRET based assay for Btk, EGFR, EphB2, Flt3, lrak4, Kdr, MAP2K1, MAPKAPK2, PDGFRB, PKC theta, Stk6 and Yes. For these assays, compounds of the invention were screened by Invitrogen using Z′-Lyte™ kinase assay.
Briefly, the Invitrogen kinase assay involves use of a specific peptide substrate optimized for each kinase, containing a fluorophore at each end that make up the FRET pair. The peptide sensitivity to proteolytic cleavage depends on phosphorylation of the peptide. Non-phosphorylated peptide is cleaved by a protease while peptide phosphorylated by the kinase is not cleaved. Cleavage of the peptide disrupts the FRET between the donor (coumarin) and acceptor (fluorescein) fluorophores, resulting in an increase in the ratio of donor emission to acceptor emission. The emission ratio of coumarin to fluorescein is used to assess the reaction progress. The extent of phosphorylation is determined from the emission ratio, which is low when the kinase is active (phosphorylated peptide is not cleaved, FRET pair connected) or higher for inhibited kinase (non-phosphorylated peptide is cleaved, FRET pair separated). Thus, the assay involves a kinase reaction in the presence of varying concentrations of a given compound, a development reaction with site specific protease, and detection of the fluorescent emission ratio of coumarin and fluorscein. […] Reaction conditions for each kinase are determined to provide optimal reaction times, incubation temperature, kinase and ATP concentrations. Test samples are made up in 1× kinase buffer (50 mM HEPES pH 7.5, 50 mM MgCl2, 5 mM EGTA, 0.05% BRIJ-35) and compound at desired concentration prepared in DMSO such that the final DMSO is 1%. […] Typically, assay plates are prepared to 10 μl final volume per sample, adding 2.5 μl of compound at 4× the desired concentration in 4% DMSO (serial dilution of compound provides concentration curve), 5 μl of the desired kinase mixed with Z′-LYTE™ peptide substrate (2× in 2× kinase buffer, final peptide at 2 μM), and 2.5 μl of 4×ATP solution. All kinase except for MAP2K1 were at 10 μM ATP in the kinase reaction, while MAP2K1 was at 100 μM. Samples are mixed and the kinase reaction is incubated 1 hour at room temperature, after which 5 μl of development solution is added and mixed. After incubation for another 1 hour at room temperature, 5 μl of stop reagent is added to each sample and mixed. The fluorescence signals are measured to determine the emission ratio.

Kdr = target: T2, Kdr (Homo sapiens, UniProt P35968); experiment: Z'-Lyte FRET kinase assay (Invitrogen), Kdr; settings: read-out: IC50, activity toward kinase Kdr
T2 construct: purchased Invitrogen (assay run by Invitrogen)
T2 sequence (P35968 20-1356): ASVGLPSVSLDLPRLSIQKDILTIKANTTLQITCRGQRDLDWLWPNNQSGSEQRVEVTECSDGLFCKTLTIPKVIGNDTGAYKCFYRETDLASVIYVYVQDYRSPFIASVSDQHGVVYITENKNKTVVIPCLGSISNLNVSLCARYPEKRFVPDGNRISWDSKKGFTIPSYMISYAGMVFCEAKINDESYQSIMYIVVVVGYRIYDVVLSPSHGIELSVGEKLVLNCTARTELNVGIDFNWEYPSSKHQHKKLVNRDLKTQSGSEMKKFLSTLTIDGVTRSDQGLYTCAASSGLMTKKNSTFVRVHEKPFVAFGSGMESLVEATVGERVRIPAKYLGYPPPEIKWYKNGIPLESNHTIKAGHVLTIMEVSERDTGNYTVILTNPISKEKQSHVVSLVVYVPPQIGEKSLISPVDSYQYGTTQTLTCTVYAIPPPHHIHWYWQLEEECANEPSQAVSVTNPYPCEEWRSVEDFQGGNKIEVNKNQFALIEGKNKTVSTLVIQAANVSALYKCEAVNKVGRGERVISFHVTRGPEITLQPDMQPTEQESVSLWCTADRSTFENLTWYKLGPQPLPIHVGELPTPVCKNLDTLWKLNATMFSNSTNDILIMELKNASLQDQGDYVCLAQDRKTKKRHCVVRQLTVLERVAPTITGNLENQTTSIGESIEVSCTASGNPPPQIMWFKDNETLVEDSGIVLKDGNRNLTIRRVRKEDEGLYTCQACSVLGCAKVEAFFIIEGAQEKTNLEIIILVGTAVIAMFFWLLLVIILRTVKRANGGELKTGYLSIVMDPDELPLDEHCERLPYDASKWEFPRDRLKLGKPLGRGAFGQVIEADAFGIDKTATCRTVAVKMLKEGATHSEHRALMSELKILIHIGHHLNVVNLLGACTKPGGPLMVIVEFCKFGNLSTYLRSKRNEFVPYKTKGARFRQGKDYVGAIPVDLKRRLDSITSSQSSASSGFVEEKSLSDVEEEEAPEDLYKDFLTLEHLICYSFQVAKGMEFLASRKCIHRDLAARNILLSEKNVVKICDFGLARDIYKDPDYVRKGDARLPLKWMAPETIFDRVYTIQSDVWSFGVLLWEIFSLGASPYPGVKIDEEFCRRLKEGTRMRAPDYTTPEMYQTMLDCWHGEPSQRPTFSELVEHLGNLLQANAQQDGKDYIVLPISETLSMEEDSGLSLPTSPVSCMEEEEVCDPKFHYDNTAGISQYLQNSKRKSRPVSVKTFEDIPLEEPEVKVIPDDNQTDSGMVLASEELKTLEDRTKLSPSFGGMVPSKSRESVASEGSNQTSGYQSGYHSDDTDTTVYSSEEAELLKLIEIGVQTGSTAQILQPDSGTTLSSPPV
Text: For example, direct radiometric, indirect FRET or AlphaScreen assays may be used to assess the level of phosphorylation of a substrate in the presence of test compounds in order to determine the inhibitory affect of the compound on the kinase. […] For these assays, compounds of the invention were screened by Invitrogen using Z′-Lyte™ kinase assay.
Briefly, the Invitrogen kinase assay involves use of a specific peptide substrate optimized for each kinase, containing a fluorophore at each end that make up the FRET pair. The peptide sensitivity to proteolytic cleavage depends on phosphorylation of the peptide. Non-phosphorylated peptide is cleaved by a protease while peptide phosphorylated by the kinase is not cleaved. Cleavage of the peptide disrupts the FRET between the donor (coumarin) and acceptor (fluorescein) fluorophores, resulting in an increase in the ratio of donor emission to acceptor emission. The emission ratio of coumarin to fluorescein is used to assess the reaction progress. […] Thus, the assay involves a kinase reaction in the presence of varying concentrations of a given compound, a development reaction with site specific protease, and detection of the fluorescent emission ratio of coumarin and fluorscein. […] Reaction conditions for each kinase are determined to provide optimal reaction times, incubation temperature, kinase and ATP concentrations. Test samples are made up in 1× kinase buffer (50 mM HEPES pH 7.5, 50 mM MgCl2, 5 mM EGTA, 0.05% BRIJ-35) and compound at desired concentration prepared in DMSO such that the final DMSO is 1%. […] All kinase except for MAP2K1 were at 10 μM ATP in the kinase reaction, while MAP2K1 was at 100 μM. Samples are mixed and the kinase reaction is incubated 1 hour at room temperature, after which 5 μl of development solution is added and mixed. After incubation for another 1 hour at room temperature, 5 μl of stop reagent is added to each sample and mixed. The fluorescence signals are measured to determine the emission ratio.

IKK beta = target: T3, IKK beta (Homo sapiens, UniProt O14920); experiment: AlphaScreen kinase assay, IKK beta; settings: read-out: IC50, activity toward kinase IKK beta
T3 sequence (O14920 1-756): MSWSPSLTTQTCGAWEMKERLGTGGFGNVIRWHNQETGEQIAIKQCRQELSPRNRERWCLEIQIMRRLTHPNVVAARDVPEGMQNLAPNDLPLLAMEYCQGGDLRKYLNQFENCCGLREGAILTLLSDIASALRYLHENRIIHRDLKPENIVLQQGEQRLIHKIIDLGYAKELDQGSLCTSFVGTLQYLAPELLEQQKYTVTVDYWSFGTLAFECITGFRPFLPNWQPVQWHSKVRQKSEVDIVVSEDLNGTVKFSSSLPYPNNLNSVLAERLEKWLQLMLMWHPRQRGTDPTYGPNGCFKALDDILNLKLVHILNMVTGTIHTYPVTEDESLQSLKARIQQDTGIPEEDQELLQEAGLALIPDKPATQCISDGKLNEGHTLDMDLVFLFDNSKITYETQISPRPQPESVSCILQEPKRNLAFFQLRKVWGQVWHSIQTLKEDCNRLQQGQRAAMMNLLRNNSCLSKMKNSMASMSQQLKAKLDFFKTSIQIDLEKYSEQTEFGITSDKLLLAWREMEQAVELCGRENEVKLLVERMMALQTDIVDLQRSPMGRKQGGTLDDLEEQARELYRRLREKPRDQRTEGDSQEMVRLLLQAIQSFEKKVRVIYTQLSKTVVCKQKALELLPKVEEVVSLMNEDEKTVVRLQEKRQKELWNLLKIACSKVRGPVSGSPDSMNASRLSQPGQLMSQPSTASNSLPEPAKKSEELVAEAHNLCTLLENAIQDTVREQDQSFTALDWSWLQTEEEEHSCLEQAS

Itk = target: T4, Itk (Homo sapiens, UniProt Q08881); experiment: AlphaScreen kinase assay, Itk; settings: read-out: IC50, activity toward kinase Itk
T4 sequence (Q08881 1-620): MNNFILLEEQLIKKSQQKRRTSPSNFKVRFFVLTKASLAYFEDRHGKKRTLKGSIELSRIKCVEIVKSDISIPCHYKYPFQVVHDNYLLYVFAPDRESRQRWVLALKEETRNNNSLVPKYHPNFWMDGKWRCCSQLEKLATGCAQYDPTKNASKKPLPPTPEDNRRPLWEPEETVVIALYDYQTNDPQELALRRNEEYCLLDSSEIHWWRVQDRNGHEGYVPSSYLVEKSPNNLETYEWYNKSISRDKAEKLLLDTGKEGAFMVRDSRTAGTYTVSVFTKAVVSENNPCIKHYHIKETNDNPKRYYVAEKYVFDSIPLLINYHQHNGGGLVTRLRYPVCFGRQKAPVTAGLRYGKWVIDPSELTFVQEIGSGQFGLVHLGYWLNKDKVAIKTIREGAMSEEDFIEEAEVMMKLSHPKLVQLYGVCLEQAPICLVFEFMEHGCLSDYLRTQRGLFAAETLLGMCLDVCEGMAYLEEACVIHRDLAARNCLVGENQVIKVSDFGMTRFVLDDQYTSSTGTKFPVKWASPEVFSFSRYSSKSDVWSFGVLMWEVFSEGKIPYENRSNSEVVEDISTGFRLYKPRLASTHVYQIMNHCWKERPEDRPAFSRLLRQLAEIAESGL
Text: AlphaScreen assay was used to screen additional kinases. The assay is similarly dependent on the phosphorylation of a peptide substrate. In this assay, an antibody that recognizes phosphorylated substrate is bound to an acceptor bead. The peptide substrate is attached to biotin, which binds to a donor head that contains streptavidin. Thus phosphorylated substrate is bound by antibody and streptavidin, bringing the donor and acceptor heads into close proximity when kinase is not inhibited. The donor produces singlet oxygen which results in emission from the acceptor when they are in close proximity. Conversely, when kinase is inhibited, the donor and acceptor beads are not associated and the emission from the acceptor is reduced.
AlphaScreen assays were done using compounds dissolved in DMSO to a concentration of 20 mM. The compounds were diluted accordingly to the desired final concentrations in each sample well, using 1:3 serial dilution for a total of 8 concentration points.

Stk6 = target: T5, Stk6 (Homo sapiens, UniProt O14965); experiment: Z'-Lyte FRET kinase assay (Invitrogen), Stk6; settings: read-out: IC50, activity toward kinase Stk6
T5 construct: purchased Invitrogen (Carlsbad, Calif.), screening service
T5 sequence (O14965 1-403): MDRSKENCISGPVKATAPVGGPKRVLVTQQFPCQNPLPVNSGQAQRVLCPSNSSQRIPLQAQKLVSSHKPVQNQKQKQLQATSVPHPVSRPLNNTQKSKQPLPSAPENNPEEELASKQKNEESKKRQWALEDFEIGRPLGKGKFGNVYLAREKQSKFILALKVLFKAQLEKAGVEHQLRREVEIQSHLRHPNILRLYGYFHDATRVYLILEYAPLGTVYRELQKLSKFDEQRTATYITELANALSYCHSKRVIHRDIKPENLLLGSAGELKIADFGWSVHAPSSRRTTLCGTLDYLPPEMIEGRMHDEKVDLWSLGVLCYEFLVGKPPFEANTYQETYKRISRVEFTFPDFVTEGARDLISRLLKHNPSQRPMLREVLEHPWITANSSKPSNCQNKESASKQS

Kit = target: T6, Kit (Homo sapiens, UniProt P10721); experiment: AlphaScreen kinase assay, Kit; settings: read-out: IC50, activity toward kinase Kit
T6 construct: P1332.N6 BI PTP KIT M552-K948-X COD; His6 (N); made in house; host or cells: E. coli (PTP1B co-expressed)
T6 sequence (P10721 with tags, fused parts or gaps): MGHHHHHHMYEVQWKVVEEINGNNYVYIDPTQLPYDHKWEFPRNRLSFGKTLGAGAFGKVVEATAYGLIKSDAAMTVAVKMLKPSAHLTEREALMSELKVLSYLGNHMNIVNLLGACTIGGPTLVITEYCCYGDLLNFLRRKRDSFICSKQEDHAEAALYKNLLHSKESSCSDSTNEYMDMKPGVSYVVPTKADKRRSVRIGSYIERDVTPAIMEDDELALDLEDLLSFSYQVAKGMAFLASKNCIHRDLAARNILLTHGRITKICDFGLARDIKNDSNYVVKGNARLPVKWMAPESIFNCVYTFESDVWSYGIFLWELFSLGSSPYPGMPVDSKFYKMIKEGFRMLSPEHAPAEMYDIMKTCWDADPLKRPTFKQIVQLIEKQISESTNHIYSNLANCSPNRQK

B-Raf V600E = target: T7, B-Raf V600E (Homo sapiens, UniProt P15056, V600E); experiment: AlphaScreen kinase assay, B-Raf V600E; settings: read-out: IC50, activity toward kinase B-Raf V600E
T7 construct: P4254. pFastBacBD-CDC37 BRAF D437-K722-X, V600E; His6 with pFastBac HT leader (TEV site) (N); made in house; host or cells: Sf9 (baculovirus; chaperone CDC37 co-expressed)
T7 sequence (P15056 with tags, fused parts or gaps V600E): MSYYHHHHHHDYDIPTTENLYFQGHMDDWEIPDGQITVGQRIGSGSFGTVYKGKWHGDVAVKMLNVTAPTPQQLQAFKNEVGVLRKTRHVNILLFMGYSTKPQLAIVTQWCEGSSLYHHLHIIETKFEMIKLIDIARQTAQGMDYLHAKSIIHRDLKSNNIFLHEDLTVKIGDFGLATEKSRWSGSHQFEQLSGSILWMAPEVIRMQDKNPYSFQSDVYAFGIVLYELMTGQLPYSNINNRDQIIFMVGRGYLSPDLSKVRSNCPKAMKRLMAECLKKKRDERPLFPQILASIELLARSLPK

Jnk3 = target: T8, Jnk3 (Homo sapiens, UniProt P53779); experiment: AlphaScreen kinase assay, Jnk3; settings: read-out: IC50, activity toward kinase Jnk3
T8 construct: purchased Upstate Biotechnology
T8 sequence (P53779 whole entry): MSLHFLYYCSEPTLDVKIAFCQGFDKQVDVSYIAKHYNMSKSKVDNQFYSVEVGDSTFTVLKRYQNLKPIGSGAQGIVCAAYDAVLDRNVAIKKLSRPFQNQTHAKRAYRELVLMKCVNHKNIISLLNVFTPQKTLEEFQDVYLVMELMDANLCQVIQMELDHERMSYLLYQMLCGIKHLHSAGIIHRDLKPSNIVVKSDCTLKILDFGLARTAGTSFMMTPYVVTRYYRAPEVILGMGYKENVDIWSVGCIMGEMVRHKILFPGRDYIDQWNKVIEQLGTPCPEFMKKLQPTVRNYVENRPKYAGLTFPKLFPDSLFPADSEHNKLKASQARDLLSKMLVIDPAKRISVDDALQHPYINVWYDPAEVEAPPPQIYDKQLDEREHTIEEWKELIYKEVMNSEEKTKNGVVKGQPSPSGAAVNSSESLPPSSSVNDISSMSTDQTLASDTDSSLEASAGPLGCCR

c-Raf-1 = target: T9, c-Raf-1 (Homo sapiens, UniProt P04049); experiment: AlphaScreen kinase assay, c-Raf-1; settings: read-out: IC50, activity toward kinase c-Raf-1
T9 construct: purchased Upstate Biotechnology

B-Raf = target: T10, B-Raf (Homo sapiens, UniProt P15056); experiment: AlphaScreen kinase assay, B-Raf; settings: read-out: IC50, activity toward kinase B-Raf
T10 construct: purchased Upstate Biotechnology
T10 sequence (P15056 whole entry): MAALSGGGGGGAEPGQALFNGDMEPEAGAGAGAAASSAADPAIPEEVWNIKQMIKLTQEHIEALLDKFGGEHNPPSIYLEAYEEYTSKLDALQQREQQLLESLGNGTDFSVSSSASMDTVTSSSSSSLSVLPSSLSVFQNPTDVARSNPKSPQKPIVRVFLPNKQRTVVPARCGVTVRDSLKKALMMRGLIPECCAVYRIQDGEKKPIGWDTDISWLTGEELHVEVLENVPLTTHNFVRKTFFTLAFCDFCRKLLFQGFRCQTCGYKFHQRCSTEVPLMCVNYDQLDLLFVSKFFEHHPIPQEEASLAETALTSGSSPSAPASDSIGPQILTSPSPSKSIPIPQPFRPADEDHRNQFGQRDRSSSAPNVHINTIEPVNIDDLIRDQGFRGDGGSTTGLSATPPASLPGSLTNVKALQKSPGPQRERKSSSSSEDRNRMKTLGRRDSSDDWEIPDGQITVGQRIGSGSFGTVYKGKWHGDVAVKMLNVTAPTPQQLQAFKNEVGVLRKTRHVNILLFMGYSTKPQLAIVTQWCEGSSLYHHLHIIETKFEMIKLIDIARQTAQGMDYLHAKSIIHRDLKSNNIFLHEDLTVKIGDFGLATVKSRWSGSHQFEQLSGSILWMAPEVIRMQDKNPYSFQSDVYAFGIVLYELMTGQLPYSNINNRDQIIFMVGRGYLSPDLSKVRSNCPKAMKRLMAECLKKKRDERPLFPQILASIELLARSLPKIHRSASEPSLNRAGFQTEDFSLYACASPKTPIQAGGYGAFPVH

Pyk2 = target: T11, Pyk2 (Homo sapiens, UniProt Q14289); experiment: AlphaScreen kinase assay, Pyk2; settings: read-out: IC50, activity toward kinase Pyk2
T11 construct: purchased Upstate Biotechnology
Method: (§1) AlphaScreen assays were done using compounds dissolved in DMSO to a concentration of 20 mM. The compounds were diluted accordingly to the desired final concentrations in each sample well, using 1:3 serial dilution for a total of 8 concentration points. Plates were prepared such that each kinase reaction is 20 μl in 1× kinase buffer, 5% DMSO and 10 μM ATP. After incubation of the kinase reaction for 1 hour at room temperature, 5 μl of donor beads in stop buffer (50 mM EDTA in 1× kinase buffer) was added, the sample was mixed and incubated for 20 minutes at room temperature before adding 5 μl of acceptor beads in stop buffer. The samples were incubated for 60 minutes at room temperature and the signal per well was read on AlphaQuest reader.

Fms = target: T12, Fms (Homo sapiens, UniProt P07333); experiment: AlphaScreen kinase assay, Fms; settings: read-out: IC50, activity toward kinase Fms
T12 construct: purchased Upstate Biotechnology
T12 sequence (P07333 20-972): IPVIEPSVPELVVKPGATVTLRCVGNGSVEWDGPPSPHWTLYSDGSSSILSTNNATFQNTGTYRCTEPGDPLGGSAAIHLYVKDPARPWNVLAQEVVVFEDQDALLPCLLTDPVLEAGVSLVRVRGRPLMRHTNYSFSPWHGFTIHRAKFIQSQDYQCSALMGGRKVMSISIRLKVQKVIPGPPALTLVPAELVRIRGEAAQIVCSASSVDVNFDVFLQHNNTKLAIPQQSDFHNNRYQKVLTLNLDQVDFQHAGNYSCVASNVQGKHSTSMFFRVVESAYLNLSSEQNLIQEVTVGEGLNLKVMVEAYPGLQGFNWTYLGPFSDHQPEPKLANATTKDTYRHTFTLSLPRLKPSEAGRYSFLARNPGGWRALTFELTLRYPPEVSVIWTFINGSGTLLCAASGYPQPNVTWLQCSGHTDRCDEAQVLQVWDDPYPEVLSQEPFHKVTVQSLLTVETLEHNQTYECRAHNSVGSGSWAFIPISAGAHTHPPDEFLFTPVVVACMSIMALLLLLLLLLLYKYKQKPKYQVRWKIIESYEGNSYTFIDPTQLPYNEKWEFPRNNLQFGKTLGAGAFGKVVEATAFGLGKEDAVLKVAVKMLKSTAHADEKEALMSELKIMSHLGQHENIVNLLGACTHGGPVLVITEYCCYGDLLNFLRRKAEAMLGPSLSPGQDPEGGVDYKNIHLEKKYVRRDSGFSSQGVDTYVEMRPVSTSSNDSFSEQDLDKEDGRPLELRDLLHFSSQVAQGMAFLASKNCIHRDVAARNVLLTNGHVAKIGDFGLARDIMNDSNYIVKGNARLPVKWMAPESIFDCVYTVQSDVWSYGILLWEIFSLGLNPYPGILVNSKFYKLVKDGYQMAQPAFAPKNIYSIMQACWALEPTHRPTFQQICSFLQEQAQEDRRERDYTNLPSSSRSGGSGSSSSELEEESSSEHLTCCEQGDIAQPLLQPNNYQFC
Method: as §1

Jnk1 = target: T13, Jnk1 (Homo sapiens, UniProt P45983); experiment: AlphaScreen kinase assay, Jnk1; settings: read-out: IC50, activity toward kinase Jnk1
T13 construct: purchased Upstate Biotechnology

Fak = target: T14, Fak (Homo sapiens, UniProt Q05397); experiment: AlphaScreen kinase assay, Fak; settings: read-out: IC50, activity toward kinase Fak
T14 construct: P1358.pFastBacHtb FAK S411-Q686-X; His6 with pFastBacHTb leader (TEV site) (N); made in house; host or cells: Sf9 (baculovirus)

Src = target: T15, Src (Homo sapiens, UniProt P12931); experiment: AlphaScreen kinase assay, Src; settings: read-out: IC50, activity toward kinase Src
T15 construct: P1144. pET-N6 BI-PTP SRC V86-L536-X; made in house

FGFR1 = target: T16, FGFR1 (Homo sapiens, UniProt P11362, C488A/C584S); experiment: AlphaScreen kinase assay, FGFR1; settings: read-out: IC50, activity toward kinase FGFR
T16 construct: P1351.pET N6 BI-PTP FGFR A458-E765-X C488A, C584S; made in house; host or cells: E. coli (PTP1B co-expressed)
T16 sequence (P11362 458-765 C488A/C584S): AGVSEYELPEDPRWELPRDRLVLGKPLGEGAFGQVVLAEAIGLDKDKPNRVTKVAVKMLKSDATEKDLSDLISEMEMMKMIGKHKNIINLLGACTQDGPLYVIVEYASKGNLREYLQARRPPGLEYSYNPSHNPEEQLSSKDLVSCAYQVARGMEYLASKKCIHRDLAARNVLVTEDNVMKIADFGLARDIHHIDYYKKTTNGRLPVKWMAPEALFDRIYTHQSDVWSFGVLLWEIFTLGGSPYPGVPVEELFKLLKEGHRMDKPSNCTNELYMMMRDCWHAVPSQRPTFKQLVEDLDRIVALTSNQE

Measured: IC50

Akt3, sequence (Q9Y243 whole entry): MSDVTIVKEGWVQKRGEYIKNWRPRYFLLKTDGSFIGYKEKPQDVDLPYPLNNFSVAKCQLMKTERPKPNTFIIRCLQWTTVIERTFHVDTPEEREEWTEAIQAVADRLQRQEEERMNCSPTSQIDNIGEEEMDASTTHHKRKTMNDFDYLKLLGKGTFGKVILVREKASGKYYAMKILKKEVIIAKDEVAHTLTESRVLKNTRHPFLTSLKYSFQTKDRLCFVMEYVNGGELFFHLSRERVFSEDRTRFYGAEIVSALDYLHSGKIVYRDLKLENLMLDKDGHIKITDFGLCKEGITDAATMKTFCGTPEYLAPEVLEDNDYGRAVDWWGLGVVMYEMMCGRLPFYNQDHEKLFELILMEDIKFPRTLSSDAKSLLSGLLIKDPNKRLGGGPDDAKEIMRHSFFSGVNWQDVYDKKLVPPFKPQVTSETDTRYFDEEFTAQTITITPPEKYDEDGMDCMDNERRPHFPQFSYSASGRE

c1cc(-c2ccc(N3CCNCC3)nc2)c2cc[nH]c2n1 [Compound P-0270]
≤ 10 µM: Akt3 | PKC theta | Kdr | IKK beta

CS(=O)(=O)c1cccc(-c2cnc3[nH]ccc3c2)c1 [Compound P-0173, 5-(3-Methanesulfonyl-phenyl)-1H-pyrrolo[2,3-b]pyridine]
≤ 10 µM: Itk | Stk6 | Kdr

c1cc2cc(Nc3ccc(N4CCCCC4)cc3)cnc2[nH]1 [Compound P-1016]
≤ 10 µM: Akt3 | Itk | Kit | B-Raf V600E | Jnk3

c1cc(Nc2ccc(N3CCCCC3)cc2)c2cc[nH]c2n1 [Compound P-0883]
≤ 10 µM: Akt3 | Itk | c-Raf-1 | B-Raf | Pyk2 | Fms

NC(=O)c1cccc(-c2cnc3[nH]cc(Cc4ccccc4O)c3c2)c1 [Compound P-1385]
not listed: Akt3 | PKC theta | Kdr | IKK beta | Stk6 | c-Raf-1 | Pyk2
≤ 10 µM: all other assays above

Brc1ccc(Nc2cnc3[nH]ccc3c2)cc1 [Compound P-1067]
≤ 10 µM: Itk | B-Raf V600E
